Assay results reported in patent publication US8058243B2, “Method for treating a brain cancer with ifenprodil” (HSC Research and Development Limited Partnership, priority 2006, dated 2011).
Read-outs that look alike come from different tables or passages of the source.

What was measured:
[1] = tested on: hGBM1 precursors (WHO grade IV GBM); test: Human glioblastoma precursor EC50 (hGBM1); assay type: cell-based
[2] = tested on: hGBM2 precursors (WHO grade IV GBM, giant cell variant); test: Human glioblastoma precursor EC50 (hGBM2); assay type: cell-based
[3] = tested on: murine neural precursor cells (neurosphere cultures); test: HTS of LOPAC library against secondary neurosphere cultures, MTT proliferation assay at 3 μM, day 7 (z score, P value); assay type: cell-based, mouse
[4] = tested on: neural precursors derived from human fetal CNS tissue (hFetal); test: Human fetal neural precursor EC50; assay type: cell-based
[5] = tested on: ptc1+/− medulloblastoma precursor cells (neurosphere cultures); test: Medulloblastoma tumor sphere MTT proliferation EC50; assay type: cell-based, mouse
Excerpt: (§1) Astrocyte Screen and Neurosphere Selectivity Assessment. […] Murine Medulloblastoma Generation and Culture. […] Flow Cytometry. […] Results

[6] = tested on: mouse NSC neurosphere cultures; test: Dose-response curves and EC50, neurosphere MTT proliferation, 7 days; assay type: cell-based
[7] = tested on: Ptch1+/− Trp53−/− medulloblastoma neurosphere cultures; test: Tumor sphere MTT proliferation EC50; assay type: cell-based, mouse; conditions: read-out: Ptch1+/− Trp53−/− neurosphere EC50
Excerpt: as §1

[8] = LOPAC library screen, 3 μM, MTT, secondary neurosphere cultures, day 7
[9] = LOPAC primary screen, neurosphere MTT proliferation, 3 μM, day 7
[10] = yes = significantly inhibited neurosphere proliferation (P<0.01) in the primary screen
[11] = cultures derived from mouse cerebellar tumor samples, read-out: Ptch1+/− neurosphere EC50
[12] = ptc1+/− medulloblastoma derived neurospheres, read-out: Medulloblastoma Neurosphere EC50
[13] = Table 8, read-out: Neurosphere EC50
[14] = normal mouse neurosphere cultures, MTT, 7 days, read-out: Neurosphere EC50
[15] = read-out: EC 50% Neurosphere, Table 5
[16] = yes/no: significantly inhibited neurosphere proliferation (P<0.01) in the primary screen
[17] = Mus musculus, ptc1+/− medulloblastoma derived neurospheres, read-out: Medulloblastoma Neurosphere EC50
[18] = 168 h, normal mouse neurosphere cultures, MTT, 7 days, read-out: Neurosphere EC50
[19] = Mus musculus, read-out: EC 50% Neurosphere, Table 5
[20] = Mus musculus, Table 8, read-out: Neurosphere EC50

With N.N.O=C([O-])C1(C(=O)[O-])CCC1.[Pt+2] [Carboplatin (3), Carboplatin] the EC50 [1] was 2040 nM, the EC50 [2] was 3300 nM and the “Z Score” value [3, 8] was −6.204. For the same compound, the Z score [3, 9] was −6.204, the Activity [3, 10] was “yes” and the EC50 [4] was 430 nM. For the same compound, the EC50 [5, 11] was 196 nM, the EC50 [5, 12] was 196 nM and the EC50 [6, 13] was 489 nM. For the same compound, the EC50 [6, 14] was 489 nM and the EC50 [6, 15] was 489 nM.
For Cl.Cl.OCCN1CCN(CC/C=C2/c3ccccc3Sc3ccc(C(F)(F)F)cc32)CC1 [cis-(Z)-Flupenthixol (7), cis-(Z)-Flupenthixol], the “Z Score” value [3, 8] was −8.822, the Z score [3, 9] was −8.822 and the Activity [3, 16] was “yes”. It also gave an EC50 [5, 11] of 187 nM, an EC50 [5, 12] of 187 nM and an EC50 [6, 13] of 199 nM. It also gave an EC50 [6, 14] of 199 nM and an EC50 [6, 15] of 199 nM.
In the case of CC(C)(C)[C@]1(O)CCN2C[C@H]3c4ccccc4CCc4cccc(c43)[C@@H]2C1 (racemic) [(±) Butaclamol (4), (±)-Butaclamol], the EC50 ([7]; cultures derived from mouse cerebellar tumor samples) is reported as 2530 nM, the Activity [3] is reported as “yes” and the Z score ([3]; 168 h, 3 µM) is reported as −5.934. It also gave an EC50 [5, 17] of 751 nM, an EC50 [5, 11] of 751 nM and an EC50 [6, 18] of 785 nM. For the same compound, the EC50 [6, 19] was 785 nM and the EC50 [6, 20] was 785 nM.
COc1cc2ncnc(Nc3ccc(O)cc3)c2cc1OC [WHI-P131 (12), 4-(4′-hydroxylphenyl)-amino-6,7-dimethoxyquinazoline] showed an EC50 [5, 17] of 1520 nM, an EC50 [5, 11] of 1520 nM and an EC50 [6, 18] of 2350 nM. It also gave an EC50 [6, 19] of 2350 nM and an EC50 [6, 20] of 2350 nM.
CC(C)COCC(CN(Cc1ccccc1)c1ccccc1)N1CCCC1 (stereo not drawn) [Bepridil (28), Bepridil, reference compound] was tested, and the “Z Score” value [3, 8] was −2.655, the Z score [3, 9] was −2.655 and the Activity [3, 10] was “yes”. For the same compound, the EC50 [6, 19] was 2700 nM and the EC50 [6, 20] was 2700 nM.
Work on C[C@@H]1C[C@@H]([C@H](O)CC2CC(=O)NC(=O)C2)C(=O)[C@@H](C)C1 [Cycloheximide (1), Cycloheximide] yielded an EC50 ([7]; Mus musculus) of 54 nM, an EC50 ([5]; Mus musculus, read-out: Medulloblastoma Neurosphere EC50) of 42 nM and an EC50 ([5]; Mus musculus, read-out: Ptch1+/− neurosphere EC50) of 42 nM.
Compound CC[C@]1(O)C[C@@H]2CN(CCc3c([nH]c4ccccc34)[C@@](C(=O)OC)(c3cc4c(cc3OC)N(C)[C@H]3[C@@](O)(C(=O)OC)[C@H](OC(C)=O)[C@]5(CC)C=CCN6CC[C@]43[C@@H]65)C2)C1 [Vinblastine(22), Vinblastine] has an EC50 [6, 20] of 28 nM.
For COc1cc([C@@H]2c3cc4c(cc3[C@@H](O[C@@H]3O[C@@H]5CO[C@@H](C)O[C@H]5[C@H](O)[C@H]3O)[C@H]3COC(=O)[C@H]23)OCO4)cc(OC)c1O [Etoposide (2), Etoposide], the EC50 ([1]; Homo sapiens) was 620 nM, the EC50 ([2]; Homo sapiens) was 270 nM and the “Z Score” value [3, 8] was −11.1. For the same compound, the Z score [3, 9] was −11.102, the Activity [3, 16] was “yes” and the EC50 [4] was 160 nM. The EC50 [5, 17] was 208 nM, the EC50 [5, 11] was 208 nM and the EC50 [6, 18] was 340 nM. It also gave an EC50 [6, 19] of 340 nM and an EC50 [6, 20] of 340 nM.
c1ccc2c(c1)[I+]c1ccccc1-2 [Diphenyleneiodonium (33), Diphenyleneiodonium, reference compound] was tested, and the “Z Score” value [3, 8] was −10.07, the Z score [3, 9] was −10.068 and the Activity [3, 10] was “yes”. It also gave an EC50 [6, 19] of 11 nM and an EC50 [6, 20] of 11 nM.
CN1CCN(c2nc3cc(C(F)(F)F)ccc3n3cccc23)CC1.O=C(O)/C=C\C(=O)O [CGS-12066A (40), reference compound] was tested, and the “Z Score” value [3, 8] was −2.575, the Z score [3, 9] was −2.575 and the Activity [3, 10] was “yes”. It also gave an EC50 [6, 13] of 2010 nM and an EC50 [6, 15] of 2010 nM.
With “(R)-(−)-Propylnorapomorphine [(R)-(−)-Propylnorapomorphine (5)]” the Activity [3] was “yes”, the “Z Score” value [3] was −8.274 and the Z score [3] was −8.274. The EC50 [5, 11] was 199 nM, the EC50 ([5]; read-out: Medulloblastoma Neurosphere EC50) was 199 nM and the EC50 [6, 13] was 351 nM. The EC50 [6, 14] was 351 nM and the EC50 [6, 15] was 351 nM.
Oc1ccc(-c2nc(-c3ccc(F)cc3)c(-c3ccncc3)[nH]2)cc1 [SB 202190 (13)] was tested, and the “Z Score” value ([3]; LOPAC library screen at 3 μM, secondary neurosphere cultures, MTT) was −1.124, the Z score ([3]; LOPAC screen, neurosphere MTT proliferation, 3 μM, day 7) was −1.124 and the Activity ([3]; yes/no: significantly inhibited neurosphere proliferation (P<0.01) in primary screen) was “no”. The EC50 [5, 11] was 3010 nM, the EC50 [5, 12] was 3010 nM and the EC50 [6, 13] was 8060 nM. For the same compound, the EC50 [6, 14] was 8060 nM and the EC50 [6, 15] was 8060 nM.
CCCCCCCCCCC/C=C\C(C)(C)/C=C\CCCC(=O)O [7,7-Dimethyl-(5Z,8Z)-eicosadienoic acid] was tested, and the “Z Score” value [3] was −3.045, the Z score [3, 9] was −3.045 and the Activity [3, 16] was “yes”. The EC50 [6, 13] was 5170 nM.
Compound CC(=O)O[C@H]1C(=O)[C@@]2(C)[C@H]([C@H](OC(=O)c3ccccc3)[C@]3(O)C[C@H](OC(=O)[C@H](O)[C@@H](NC(=O)c4ccccc4)c4ccccc4)C(C)=C1C3(C)C)[C@]1(OC(C)=O)CO[C@@H]1C[C@@H]2O [Taxol (21), Taxol] has an EC50 [6, 20] of 10 nM.
In the case of CC[C@H](C)C(=O)O[C@H]1CCC=C2C=C[C@H](C)[C@H](CC[C@@H]3C[C@@H](O)CC(=O)O3)[C@H]21 [Mevastatin (20), Mevastatin], the EC50 [6, 20] is reported as 142 nM.
CC(C)COC(=O)OCN1C(=O)CN(CCN2CC(=O)N(COC(=O)OCC(C)C)C(=O)C2)CC1=O [Sobuzaxane (19), Sobuzaxane] showed an EC50 [6, 13] of 10200 nM.
For S=C=Nc1cccc(C2(N3CCCCC3)CCCCC2)c1 [Metaphit (35), Metaphit, reference compound], the “Z Score” value [3] was −4.967, the Z score [3, 9] was −4.967 and the Activity [3, 16] was “yes”. For the same compound, the EC50 [6, 19] was 10000 nM and the EC50 [6, 20] was 10000 nM.
